From ChEMBL document CHEMBL3885881, “DrugMatrix”

Species on record: Rattus norvegicus
Assay: DrugMatrix - Regimen: Daily Repeat
Assay type: toxicity, organism-based, Sprague-Dawley
Set-up: regimen Daily Repeat, gender Male, age 6-8 weeks
Conditions: in vivo, sc, route mini-PUMP - SUBCUTANEOUS, vehicle 100 % SALINE; for TOTAL PROTEIN / ALANINE AMINOTRANSFERASE / ALBUMIN / ALKALINE PHOSPHATASE / ASPARTATE AMINOTRANSFERASE / BLOOD UREA NITROGEN / CARBON DIOXIDE / CHLORIDE / CHOLESTEROL / LACTATE DEHYDROGENASE / LIPASE / PHOSPHORUS / POTASSIUM / SODIUM / CREATININE / TOTAL BILIRUBIN: tissue Plasma; for ABSOLUTE BASOPHIL / ABSOLUTE EOSINOPHIL / ABSOLUTE LYMPHOCYTE / ABSOLUTE MONOCYTE / ABSOLUTE SEGMENTED NEUTROPHIL / BASOPHIL / EOSINOPHIL / ERYTHROCYTE COUNT / HEMOGLOBIN / LEUKOCYTE COUNT / LYMPHOCYTE / MEAN CORPUSCULAR HEMOGLOBIN / MEAN CORPUSCULAR HEMOGLOBIN CONCENTRATION / MEAN CORPUSCULAR VOLUME / NUCLEATED RED BLOOD CELLS / PLATELET COUNT: tissue Blood
[1] = 0 mg/kg, 120 h, dose level Control, time 5 day
[2] = 0 mg/kg, […], dose level Control, time 14 day
[3] = […], dose 0.77 mg/Kg, dose level High, time 14 day

CNC[C@H](O)c1ccc(O)c(O)c1 [EPINEPHRINE]
TOTAL PROTEIN (0 mg/kg, 72 h, dose level Control, time 3 day): 6.05 G/DL | ABSOLUTE BASOPHIL [1]: 0 CELLS/uL | ABSOLUTE EOSINOPHIL [1]: 0 CELLS/uL | ABSOLUTE LYMPHOCYTE [1]: 14257.33 CELLS/uL | ABSOLUTE MONOCYTE [1]: 326 CELLS/uL | ABSOLUTE SEGMENTED NEUTROPHIL [1]: 3216.67 CELLS/uL | BASOPHIL [1]: 0% | EOSINOPHIL [1]: 0% | ERYTHROCYTE COUNT [1]: 6.11 x10E6/uL | HEMOGLOBIN [1]: 13.18 G/DL | LEUKOCYTE COUNT [1]: 17.8 x10E3/uL | LYMPHOCYTE [1]: 80.5% | MEAN CORPUSCULAR HEMOGLOBIN [1]: 21.62 pg | MEAN CORPUSCULAR HEMOGLOBIN CONCENTRATION [1]: 36.42 G/DL | MEAN CORPUSCULAR VOLUME [1]: 59.37 fL | NUCLEATED RED BLOOD CELLS [1]: 0 /100WBC | PLATELET COUNT [1]: 1311 x10E3/uL | ALANINE AMINOTRANSFERASE [1]: 47 u/L | ALBUMIN [1]: 3.83 G/DL | ALKALINE PHOSPHATASE [1]: 260.33 u/L | ASPARTATE AMINOTRANSFERASE [1]: 76.17 u/L | BLOOD UREA NITROGEN [1]: 14.67 mg/dL | CARBON DIOXIDE [1]: 31.33 mmol/L | CHLORIDE [1]: 101.17 MEQ/L | CHOLESTEROL [1]: 75 mg/dL | LACTATE DEHYDROGENASE [1]: 147.33 u/L | LIPASE [1]: 9.33 u/L | PHOSPHORUS [1]: 10.97 mg/dL | POTASSIUM [1]: 6 MEQ/L | SODIUM [1]: 145.52 MEQ/L | TOTAL PROTEIN [1]: 5.83 G/DL | ABSOLUTE BASOPHIL [2]: 0 CELLS/uL | ABSOLUTE EOSINOPHIL [2]: 64.5 CELLS/uL | ABSOLUTE LYMPHOCYTE [2]: 12507.83 CELLS/uL | ABSOLUTE MONOCYTE [2]: 380.33 CELLS/uL | ABSOLUTE SEGMENTED NEUTROPHIL [2]: 2414 CELLS/uL | BASOPHIL [2]: 0% | EOSINOPHIL [2]: 0.5% | ERYTHROCYTE COUNT [2]: 6.1 x10E6/uL | HEMOGLOBIN [2]: 12.88 G/DL | LEUKOCYTE COUNT [2]: 15.37 x10E3/uL | LYMPHOCYTE [2]: 80.83% | MEAN CORPUSCULAR HEMOGLOBIN [2]: 21.18 pg | MEAN CORPUSCULAR HEMOGLOBIN CONCENTRATION [2]: 36.43 G/DL | MEAN CORPUSCULAR VOLUME [2]: 58.17 fL | NUCLEATED RED BLOOD CELLS [2]: 0.17 /100WBC | PLATELET COUNT [2]: 1016 x10E3/uL | ALANINE AMINOTRANSFERASE [2]: 53.33 u/L | ALBUMIN [2]: 3.93 G/DL | ALKALINE PHOSPHATASE [2]: 319.83 u/L | ASPARTATE AMINOTRANSFERASE [2]: 84 u/L | BLOOD UREA NITROGEN [2]: 15.5 mg/dL | CARBON DIOXIDE [2]: 34 mmol/L | CHLORIDE [2]: 101.83 MEQ/L | CHOLESTEROL [2]: 57 mg/dL | CREATININE [2]: 0.21 mg/dL | LACTATE DEHYDROGENASE [2]: 104.67 u/L | LIPASE [2]: 9.17 u/L | PHOSPHORUS [2]: 11.12 mg/dL | POTASSIUM [2]: 5.81 MEQ/L | SODIUM [2]: 144.85 MEQ/L | TOTAL BILIRUBIN [2]: 0.18 mg/dL | TOTAL PROTEIN [2]: 5.92 G/DL | ABSOLUTE BASOPHIL [3]: 0 CELLS/uL | ABSOLUTE EOSINOPHIL [3]: 121.6 CELLS/uL | ABSOLUTE LYMPHOCYTE [3]: 13213.6 CELLS/uL | ABSOLUTE MONOCYTE [3]: 369.4 CELLS/uL | ABSOLUTE SEGMENTED NEUTROPHIL [3]: 2115.4 CELLS/uL | BASOPHIL [3]: 0% | EOSINOPHIL [3]: 0.8% | ERYTHROCYTE COUNT [3]: 6.78 x10E6/uL | HEMOGLOBIN [3]: 14.32 G/DL | LEUKOCYTE COUNT [3]: 15.82 x10E3/uL | LYMPHOCYTE [3]: 84.2% | MEAN CORPUSCULAR HEMOGLOBIN [3]: 21.14 pg | MEAN CORPUSCULAR HEMOGLOBIN CONCENTRATION [3]: 36.3 G/DL | MEAN CORPUSCULAR VOLUME [3]: 58.22 fL | NUCLEATED RED BLOOD CELLS [3]: 0 /100WBC | PLATELET COUNT [3]: 976 x10E3/uL | ALANINE AMINOTRANSFERASE [3]: 53.2 u/L | ALBUMIN [3]: 4.38 G/DL | ALKALINE PHOSPHATASE [3]: 383.4 u/L | ASPARTATE AMINOTRANSFERASE [3]: 82 u/L | BLOOD UREA NITROGEN [3]: 15.6 mg/dL | CARBON DIOXIDE [3]: 34.2 mmol/L | CHLORIDE [3]: 99.8 MEQ/L | CHOLESTEROL [3]: 80.2 mg/dL | CREATININE [3]: 0.21 mg/dL | LACTATE DEHYDROGENASE [3]: 111.2 u/L | LIPASE [3]: 9 u/L | PHOSPHORUS [3]: 11.84 mg/dL | POTASSIUM [3]: 6.19 MEQ/L | SODIUM [3]: 147.16 MEQ/L | TOTAL BILIRUBIN [3]: 0.14 mg/dL | TOTAL PROTEIN [3]: 6.7 G/DL
